Several values for one entry are separate records, joined by “and”; a condition that tells them apart may be missing. Identical values can stand only once. Like-named read-outs stand apart in the source and are kept apart here.
How the values were obtained:
MCC13 cells (VN-MCC) = assay: qHTS cell viability (CellTiter-Glo, 72 h; primary and follow-up small molecule screen); format: cell-based, human
MCC26 cells (VN-MCC) = assay: as above; format: cell-based, human
UISO cells (VN-MCC) = assay: as above; format: cell-based, human
WAGA cells (VP-MCC) = assay: as above; format: cell-based, human
MKL-1 cells (VP-MCC) = assay: as above; format: cell-based, human
MKL-2 cells (VP-MCC) = assay: as above; format: cell-based, human
HACAT cells = assay: qHTS cell viability (CellTiter-Glo, 72 h; primary screen), control cell line; format: cell-based, human
HEK293T cells = assay: as above; format: cell-based, human
NIH-3T3 cells = assay: as above; format: cell-based, mouse
CRL-7250 cells = assay: as above; format: cell-based
[1] = system: MCC cell lines (WAGA, MKL-1, MKL-2, MCC13, MCC26, UISO); assay: qHTS cell viability, all six MCC cell lines as a group (mean AUC, MCC.avg); format: cell-based, human
[2] = system: VP-MCC cell lines (WAGA, MKL-1, MKL-2); assay: qHTS cell viability, VP-MCC cell lines as a group (mean AUC, VP.MCC.avg); format: cell-based, human
[3] = system: VN-MCC cell lines (MCC13, MCC26, UISO); assay: qHTS cell viability, VN-MCC cell lines as a group (mean AUC, VN.MCC.avg); format: cell-based, human
[4] = system: control cell lines (HACAT, HEK293T, CRL-7250, NIH-3T3); assay: qHTS cell viability, control cell lines as a group (mean AUC, Control.avg); format: cell-based
[5] = system: six MCC cell lines and four control cell lines; assay: qHTS cell viability, all 10 cell lines screened; format: cell-based
[6] = MIPE library, 11-point DRC, sheet S2E
[7] = MIPE library, 11-point DRC, control cell line, sheet S2E

| SMILES | MCC13_AUC (MCC13 cells (VN-MCC)) | MCC26_AUC (MCC26 cells (VN-MCC)) | UISO_AUC (UISO cells (VN-MCC)) | WAGA_AUC (WAGA cells (VP-MCC)) | MKL1_AUC (MKL-1 cells (VP-MCC)) | MKL2_AUC (MKL-2 cells (VP-MCC)) | HACAT_AUC (HACAT cells) | HEK293T_AUC (HEK293T cells) | NIH3T3_AUC (NIH-3T3 cells) | CRL7250_AUC (CRL-7250 cells) | MCC_Avg_AUC [1] | Control-VP-MCC [2] | VP-MCC_Avg_AUC [2] | Control-VN-MCC [3] | VN-MCC_Avg_AUC [3] | Control_Avg_AUC [4] | Control-MCC [5] | other results |
| --- | --- | --- | --- | --- | --- | --- | --- | --- | --- | --- | --- | --- | --- | --- | --- | --- | --- | --- |
| COc1cc(NC(C)CCCN)c2ncccc2c1 (stereo not shown) [Primaquine diphosphate] | 448.24 | 495.867 | 458.954 | 404.704 | 406.282 | 418.75 | 484.209 | 455.709 | 490.172 | 485.915 | 438.799 | 69.0896 | 409.912 | 11.3144 | 467.687 | 479.001 | 40.202 | – |
| Cn1c(=O)c2c(ncn2CCO)n(C)c1=O [Etofylline] | – | – | – | – | – | – | – | – | – | – | – | – | – | – | – | – | – | MCC13_AUC (MCC13 cells (VN-MCC); NPC library, qHTS dose-response AUC, MCC13): 458.423; MCC26_AUC (MCC26 cells (VN-MCC); NPC library, qHTS dose-response AUC, MCC26): 435.802; UISO_AUC (UISO cells (VN-MCC); NPC library, qHTS dose-response AUC, UISO): 431.565; WAGA_AUC (WAGA cells (VP-MCC); NPC library, qHTS dose-response AUC, WAGA): 399.645; MKL1_AUC (MKL-1 cells (VP-MCC); NPC library, qHTS dose-response AUC, MKL1): 387.045; MKL2_AUC (MKL-2 cells (VP-MCC); NPC library, qHTS dose-response AUC, MKL2): 336.333; HACAT_AUC (HACAT cells; NPC library, qHTS dose-response AUC, HACAT control): 491.237; HEK293T_AUC (HEK293T cells; NPC library, qHTS dose-response AUC, HEK293T control): 445.08; NIH3T3_AUC (NIH-3T3 cells; NPC library, qHTS dose-response AUC, NIH3T3 control): 458.11; CRL7250_AUC (CRL-7250 cells; NPC library, qHTS dose-response AUC, CRL7250 control): 458.019; MCC_Avg_AUC ([1]; NPC library, mean AUC of six MCC cell lines): 408.136; VP-MCC_Avg_AUC ([2]; NPC library, mean AUC of VP-MCC cell lines): 374.341; Control-VP-MCC ([2]; NPC library, therapeutic window: Control avg AUC minus VP-MCC avg AUC): 88.7707; VN-MCC_Avg_AUC ([3]; NPC library, mean AUC of VN-MCC cell lines): 441.93; Control-VN-MCC ([3]; NPC library, therapeutic window: Control avg AUC minus VN-MCC avg AUC): 21.1816; Control_Avg_AUC ([4]; NPC library, mean AUC of control cell lines): 463.112; Control-MCC ([5]; NPC library, therapeutic window: Control avg AUC minus MCC avg AUC): 54.9761 |
| CN(C)CCc1c[nH]c2ccc(O)cc12 [Bufotenine] | 457.919 | 406.205 | 423.411 | 422.913 | 439.853 | 417.248 | 494.192 | 488.2 | 494.482 | 497.008 | 427.925 | 66.7991 | 426.671 | 64.2925 | 429.178 | 493.471 | 65.5458 | – |
| COc1cc(/C=C/C(=O)CC(=O)/C=C/c2ccc(O)c(OC)c2)ccc1O [Curcumin] | – | – | – | – | – | – | – | – | – | – | – | – | – | – | – | – | – | MCC13_AUC (MCC13 cells (VN-MCC); [6]): 449.9; MCC26_AUC (MCC26 cells (VN-MCC); [6]): 458.412; UISO_AUC (UISO cells (VN-MCC); [6]): 416.827; WAGA_AUC (WAGA cells (VP-MCC); [6]): 392.592; MKL1_AUC (MKL-1 cells (VP-MCC); [6]): 382.508; MKL2_AUC (MKL-2 cells (VP-MCC); [6]): 342.595; HACAT_AUC (HACAT cells; [7]): 459.473; HEK293T_AUC (HEK293T cells; [7]): 422.758; NIH3T3_AUC (NIH-3T3 cells; [7]): 423.932; CRL7250_AUC (CRL-7250 cells; [7]): 433.368; MCC_Avg_AUC ([1]; MIPE library, mean AUC of six MCC cell lines, sheet S2E): 407.139; Control-VP-MCC ([2]; MIPE library, Control AUC minus VP-MCC AUC (therapeutic window), sheet S2E): 62.3178; VP-MCC_Avg_AUC ([2]; MIPE library, mean AUC of VP-MCC cell lines, sheet S2E): 372.565; Control-VN-MCC ([3]; MIPE library, Control AUC minus VN-MCC AUC (therapeutic window), sheet S2E): -6.83; VN-MCC_Avg_AUC ([3]; MIPE library, mean AUC of VN-MCC cell lines, sheet S2E): 441.713; Control_Avg_AUC ([4]; MIPE library, mean AUC of control cell lines, sheet S2E): 434.883; Control-MCC ([5]; MIPE library, Control AUC minus MCC AUC (therapeutic window), sheet S2E): 27.7437 |
| CCN(CC)CCc1c[nH]c2ccccc12.O=C(O)/C=C/C(=O)O [N,N-Diethyltryptamine fumarate] | 439.565 | 402.623 | 405.6 | 448.87 and 448.871 | 443.844 | 447.202 | 490.224 and 490.225 | 459.326 | 478.712 | 461.166 | 431.284 | 25.7182 | 446.639 | 56.4273 | 415.93 | 472.357 | 41.0728 | – |

Reference: publication PMC11822212, “High-throughput screening identifies Aurora kinase B as a critical therapeutic target for Merkel cell carcinoma” (Nature Communications, 2025)
